Assay: Toxicology in rats, oral, histopathology
Type: in vivo
Conditions: rat, in vivo, po
Excerpt: After 32 days, the rats were sacrificed and their organs were examined under a microscope.

O.O.O.O.[Na+].[O-]B1OO1 [sodium perborate tetrahydrate]
HEART Notable or abnormal, % (0.125 mg/kg): 0%
HEART Notable or abnormal, No Exam (0.125 mg/kg): 0/10
HEART Within normal limits, % (0.125 mg/kg): 100%
HEART Within normal limits, No Exam (0.125 mg/kg): 10/10
INTESTINE, Large Notable or abnormal, % (0.125 mg/kg): 0%
INTESTINE, Large Notable or abnormal, No Exam (0.125 mg/kg): 0/10
INTESTINE, Large Within normal limits, % (0.125 mg/kg): 100%
INTESTINE, Large Within normal limits, No Exam (0.125 mg/kg): 10/10
INTESTINE, Small Notable or abnormal, % (0.125 mg/kg): 0%
INTESTINE, Small Notable or abnormal, No Exam (0.125 mg/kg): 0/10
INTESTINE, Small Within normal limits, % (0.125 mg/kg): 100%
INTESTINE, Small Within normal limits, No Exam (0.125 mg/kg): 10/10
KIDNEY Edema, % (0.125 mg/kg): 0%
KIDNEY Edema, No Exam (0.125 mg/kg): 0/10
KIDNEY Notable or abnormal, % (0.125 mg/kg): 0%
KIDNEY Notable or abnormal, No Exam (0.125 mg/kg): 0/10
KIDNEY Within normal limits, % (0.125 mg/kg): 100%
KIDNEY Within normal limits, No Exam (0.125 mg/kg): 10/10
LIVER Fattening, % (0.125 mg/kg): 0%
LIVER Fattening, No Exam (0.125 mg/kg): 0/10
LIVER Infiltration, % (0.125 mg/kg): 0%
LIVER Infiltration, No Exam (0.125 mg/kg): 0/10
LIVER Notable or abnormal, % (0.125 mg/kg): 0%
LIVER Notable or abnormal, No Exam (0.125 mg/kg): 0/10
LIVER Within normal limits, % (0.125 mg/kg): 100%
LIVER Within normal limits, No Exam (0.125 mg/kg): 10/10
LUNG Lymphocytic infiltration, % (0.125 mg/kg): 0%
LUNG Lymphocytic infiltration, No Exam (0.125 mg/kg): 0/10
LUNG Notable or abnormal, % (0.125 mg/kg): 0%
LUNG Notable or abnormal, No Exam (0.125 mg/kg): 0/10
LUNG Pulmonary edema, % (0.125 mg/kg): 0%
LUNG Pulmonary edema, No Exam (0.125 mg/kg): 0/10
LUNG Within normal limits, % (0.125 mg/kg): 100%
LUNG Within normal limits, No Exam (0.125 mg/kg): 10/10
PANCREAS Notable or abnormal, % (0.125 mg/kg): 0%
PANCREAS Notable or abnormal, No Exam (0.125 mg/kg): 0/10
PANCREAS Within normal limits, % (0.125 mg/kg): 100%
PANCREAS Within normal limits, No Exam (0.125 mg/kg): 10/10
SPLEEN Notable or abnormal, % (0.125 mg/kg): 0%
SPLEEN Notable or abnormal, No Exam (0.125 mg/kg): 0/10
SPLEEN Within normal limits, % (0.125 mg/kg): 100%
SPLEEN Within normal limits, No Exam (0.125 mg/kg): 10/10
STOMACH Notable or abnormal, % (0.125 mg/kg): 0%
STOMACH Notable or abnormal, No Exam (0.125 mg/kg): 0/10
STOMACH Within normal limits, % (0.125 mg/kg): 100%
STOMACH Within normal limits, No Exam (0.125 mg/kg): 10/10
HEART Notable or abnormal, % (0.25 mg/kg): 0%
HEART Notable or abnormal, No Exam (0.25 mg/kg): 0/10
HEART Within normal limits, % (0.25 mg/kg): 100%
HEART Within normal limits, No Exam (0.25 mg/kg): 10/10
INTESTINE, Large Notable or abnormal, % (0.25 mg/kg): 0%
INTESTINE, Large Notable or abnormal, No Exam (0.25 mg/kg): 0/10
INTESTINE, Large Within normal limits, % (0.25 mg/kg): 100%
INTESTINE, Large Within normal limits, No Exam (0.25 mg/kg): 10/10
INTESTINE, Small Notable or abnormal, % (0.25 mg/kg): 0%
INTESTINE, Small Notable or abnormal, No Exam (0.25 mg/kg): 0/10
INTESTINE, Small Within normal limits, % (0.25 mg/kg): 100%
INTESTINE, Small Within normal limits, No Exam (0.25 mg/kg): 10/10
KIDNEY Edema, % (0.25 mg/kg): 0%
KIDNEY Edema, No Exam (0.25 mg/kg): 0/10
KIDNEY Notable or abnormal, % (0.25 mg/kg): 0%
KIDNEY Notable or abnormal, No Exam (0.25 mg/kg): 0/10
KIDNEY Within normal limits, % (0.25 mg/kg): 100%
KIDNEY Within normal limits, No Exam (0.25 mg/kg): 10/10
LIVER Fattening, % (0.25 mg/kg): 0%
LIVER Fattening, No Exam (0.25 mg/kg): 0/10
LIVER Infiltration, % (0.25 mg/kg): 0%
LIVER Infiltration, No Exam (0.25 mg/kg): 0/10
LIVER Notable or abnormal, % (0.25 mg/kg): 0%
LIVER Notable or abnormal, No Exam (0.25 mg/kg): 0/10
LIVER Within normal limits, % (0.25 mg/kg): 100%
LIVER Within normal limits, No Exam (0.25 mg/kg): 10/10
LUNG Lymphocytic infiltration, % (0.25 mg/kg): 0%
LUNG Lymphocytic infiltration, No Exam (0.25 mg/kg): 0/10
LUNG Notable or abnormal, % (0.25 mg/kg): 0%
LUNG Notable or abnormal, No Exam (0.25 mg/kg): 0/10
LUNG Pulmonary edema, % (0.25 mg/kg): 0%
LUNG Pulmonary edema, No Exam (0.25 mg/kg): 0/10
LUNG Within normal limits, % (0.25 mg/kg): 100%
LUNG Within normal limits, No Exam (0.25 mg/kg): 10/10
PANCREAS Notable or abnormal, % (0.25 mg/kg): 0%
PANCREAS Notable or abnormal, No Exam (0.25 mg/kg): 0/10
PANCREAS Within normal limits, % (0.25 mg/kg): 100%
PANCREAS Within normal limits, No Exam (0.25 mg/kg): 10/10
SPLEEN Notable or abnormal, % (0.25 mg/kg): 0%
SPLEEN Notable or abnormal, No Exam (0.25 mg/kg): 0/10
SPLEEN Within normal limits, % (0.25 mg/kg): 100%
SPLEEN Within normal limits, No Exam (0.25 mg/kg): 10/10
STOMACH Notable or abnormal, % (0.25 mg/kg): 0%
STOMACH Notable or abnormal, No Exam (0.25 mg/kg): 0/10
STOMACH Within normal limits, % (0.25 mg/kg): 100%
STOMACH Within normal limits, No Exam (0.25 mg/kg): 10/10
HEART Notable or abnormal, % (0.5 mg/kg): 0%
HEART Notable or abnormal, No Exam (0.5 mg/kg): 0/10
HEART Within normal limits, % (0.5 mg/kg): 100%
HEART Within normal limits, No Exam (0.5 mg/kg): 10/10
INTESTINE, Large Notable or abnormal, % (0.5 mg/kg): 0%
INTESTINE, Large Notable or abnormal, No Exam (0.5 mg/kg): 0/10
INTESTINE, Large Within normal limits, % (0.5 mg/kg): 100%
INTESTINE, Large Within normal limits, No Exam (0.5 mg/kg): 10/10
INTESTINE, Small Notable or abnormal, % (0.5 mg/kg): 0%
INTESTINE, Small Notable or abnormal, No Exam (0.5 mg/kg): 0/10
INTESTINE, Small Within normal limits, % (0.5 mg/kg): 100%
INTESTINE, Small Within normal limits, No Exam (0.5 mg/kg): 10/10
KIDNEY Edema, % (0.5 mg/kg): 0%
KIDNEY Edema, No Exam (0.5 mg/kg): 0/10
KIDNEY Notable or abnormal, % (0.5 mg/kg): 0%
KIDNEY Notable or abnormal, No Exam (0.5 mg/kg): 0/10
KIDNEY Within normal limits, % (0.5 mg/kg): 100%
KIDNEY Within normal limits, No Exam (0.5 mg/kg): 10/10
LIVER Fattening, % (0.5 mg/kg): 0%
LIVER Fattening, No Exam (0.5 mg/kg): 0/10
LIVER Infiltration, % (0.5 mg/kg): 0%
LIVER Infiltration, No Exam (0.5 mg/kg): 0/10
LIVER Notable or abnormal, % (0.5 mg/kg): 0%
LIVER Notable or abnormal, No Exam (0.5 mg/kg): 0/10
LIVER Within normal limits, % (0.5 mg/kg): 100%
LIVER Within normal limits, No Exam (0.5 mg/kg): 10/10
LUNG Lymphocytic infiltration, % (0.5 mg/kg): 0%
LUNG Lymphocytic infiltration, No Exam (0.5 mg/kg): 0/10
LUNG Notable or abnormal, % (0.5 mg/kg): 0%
LUNG Notable or abnormal, No Exam (0.5 mg/kg): 0/10
LUNG Pulmonary edema, % (0.5 mg/kg): 0%
LUNG Pulmonary edema, No Exam (0.5 mg/kg): 0/10
LUNG Within normal limits, % (0.5 mg/kg): 100%
LUNG Within normal limits, No Exam (0.5 mg/kg): 10/10
PANCREAS Notable or abnormal, % (0.5 mg/kg): 0%
PANCREAS Notable or abnormal, No Exam (0.5 mg/kg): 0/10
PANCREAS Within normal limits, % (0.5 mg/kg): 100%
PANCREAS Within normal limits, No Exam (0.5 mg/kg): 10/10
SPLEEN Notable or abnormal, % (0.5 mg/kg): 0%
SPLEEN Notable or abnormal, No Exam (0.5 mg/kg): 0/10
SPLEEN Within normal limits, % (0.5 mg/kg): 100%
SPLEEN Within normal limits, No Exam (0.5 mg/kg): 10/10
STOMACH Notable or abnormal, % (0.5 mg/kg): 0%
STOMACH Notable or abnormal, No Exam (0.5 mg/kg): 0/10
STOMACH Within normal limits, % (0.5 mg/kg): 100%
STOMACH Within normal limits, No Exam (0.5 mg/kg): 10/10
HEART Notable or abnormal, % (1 mg/kg): 0%
HEART Notable or abnormal, No Exam (1 mg/kg): 0/10
HEART Within normal limits, % (1 mg/kg): 100%
HEART Within normal limits, No Exam (1 mg/kg): 10/10
INTESTINE, Large Notable or abnormal, % (1 mg/kg): 0%
INTESTINE, Large Notable or abnormal, No Exam (1 mg/kg): 0/10
INTESTINE, Large Within normal limits, % (1 mg/kg): 100%
INTESTINE, Large Within normal limits, No Exam (1 mg/kg): 10/10
INTESTINE, Small Notable or abnormal, % (1 mg/kg): 0%
INTESTINE, Small Notable or abnormal, No Exam (1 mg/kg): 0/10
INTESTINE, Small Within normal limits, % (1 mg/kg): 100%
INTESTINE, Small Within normal limits, No Exam (1 mg/kg): 10/10
KIDNEY Edema, % (1 mg/kg): 0%
KIDNEY Edema, No Exam (1 mg/kg): 0/10
KIDNEY Notable or abnormal, % (1 mg/kg): 0%
KIDNEY Notable or abnormal, No Exam (1 mg/kg): 0/10
KIDNEY Within normal limits, % (1 mg/kg): 100%
KIDNEY Within normal limits, No Exam (1 mg/kg): 10/10
LIVER Fattening, % (1 mg/kg): 0%
LIVER Fattening, No Exam (1 mg/kg): 0/10
LIVER Infiltration, % (1 mg/kg): 0%
LIVER Infiltration, No Exam (1 mg/kg): 0/10
LIVER Notable or abnormal, % (1 mg/kg): 0%
LIVER Notable or abnormal, No Exam (1 mg/kg): 0/10
